# Tests used:
# Assay type in all cases: in vivo, rat
# GABAR α4 subunit = assay: Western blot of α4 subunit in hippocampus after steroid and ethanol administration; conditions: steroid withdrawal after 21 days progesterone
# Method: Animals were administered steroids using one of two protocols: (i) For the 48 hour steroid administration protocol, animals were injected with 10 mg/kg 3α, 5β THP in oil, i.p., on a daily basis for three days and sacrificed 1-2 hour following the final injection. Controls were injected with oil vehicle. […] At this time, the capsule was removed and the animals were injected with 17 β estradiol (2 μgs/animal) in order to reset their cycle. Animals were sacrificed 24 hours later. […] In all cases, implantation and removal of capsules were performed under halothane anesthesia. […] Therefore, this study employed the 5β isomer of the steroid.
# In some groups of animals, either ethanol (0.5 g/kg in saline) or saline vehicle was administered i.p. (3×, every 40 minutes) for the final 2 hours of the respective steroid administration or withdrawal paradigm. The use of multiple injections of low doses of ethanol would approximate ethanol consumption in the human more closely than would a single injection. For the 48 hour steroid administration paradigm, animals received their first ethanol injection immediately after the steroid injection, and subsequent injections at 40 minute intervals. In all cases, animals were sacrificed 40 minutes after the final ethanol injection (2 hours after the first ethanol injection and final steroid injection). All animal protocols were carried out with the approval of the Institutional Animal Care and Use Committee.
# Hippocampi removed from steroid or vehicle-treated animals were homogenized, and membranes prepared as previously described (65). Following electrophoresis on 8% SDS polyacrylamide gels, membranes were transferred to a nitrocellulose membrane (Bio-Rad, Hercules, Calif.). α4 subunit levels were detected by evaluating the band density at 67 kDa after probing with a polyclonal antibody (64). Membranes were incubated for 1-2 hours at room temperature with a 1:5000 dilution of horseradish peroxidase-conjugated donkey anti-rabbit IgG (Amersham, Arlington Heights, Ill.), and visualized with enhanced chemiluminescence with varying concentrations of protein in the linear range. Immunoreactive band densities were quantified using a CCD camera (UMAX Scanner) and one-Dscan software, which uses multiple Gaussian fits to achieve accurate band density profiles.
# [1] = test system: δ and α4 GABAA receptor subunit proteins; assay: Western blot of δ and α4 subunits in hippocampus after progesterone withdrawal
# Method: (§1) Crystalline progesterone was administered via a silicone capsule ( 1/16″ i.d., ⅛″ o.d.) implanted subcutaneously (10 mm length/100 gm body weight) in female rats (110-120 grams, in vitro studies; 220-250 grams, behavioral studies) for 21 days. Control rats were implanted with an empty capsule. […] Animals were tested 24 hours after removal of the implant.
# Membranes prepared from hippocampal tissue were solubilized and electrophoresed on 9% SDS-polyacrylamide gels before transfer to a polyvinyldifluoride membrane, as described (65,69). Polyclonal antiserum against the δ subunit (Asr^318-Leu^400) was supplied by Dr. R. McKernan (Merck)(56) and is visualized as a 54 kDa band. Membranes were also probed with an antibody for the α4 GABAA receptor subunit (67 kDa) (64), developed according to a previously described protocol (38), and a commercial antibody for the control protein GAPDH (glyceraldehyde-3-phosphate dehydrogenase; 36 kDa). Membranes were incubated for 1-2 hours at room temperature with 1:10,000 (α4), 1:7,000 (δ) or 1:20,000 (GAPDH) dilution of antibody followed by addition of 1:5,000 horseradish-peroxidase-conjugated donkey anti-rabbit IgG (Amersham). Band densities were quantified using densitometry with One-Dscan software after normalization to the GAPDH control. Reagents were obtained from Sigma/Genosys.
# δ subunit mRNA = assay: Semi-quantitative RT-PCR of δ subunit in hippocampus; conditions: after progesterone withdrawal
# Method: as §1
# Following isolation of total RNA from hippocampus, reverse transcription (SuperScript II, Rnase RT, GibcoBRL) yielded complementary DNA (cDNA) which was amplified with PCR methods (65) using oligonucleotide primers for the δ subunit (398 bp)(70) and GAPDH (657 bp, Operon). Twenty three to thirty amplification cycles were used for two different concentrations of cDNA (25 or 50 ng) to detect band densities within a linear range (15). Following gel electrophoresis (FMC Bioproducts), the density of DNA bands stained with ethidium bromide was quantified and normalized to the GAPDH control.
compound,measurement,setting,value
CC(=O)[C@H]1CC[C@H]2[C@@H]3CCC4=CC(=O)CC[C@]4(C)[C@H]3CC[C@]12C [progesterone],increase of α4 expression,GABAR α4 subunit,threefold
same,expression of α4 subunit protein in hippocampus,[1],three-fold
same,expression of δ subunit protein in hippocampus,[1],three-fold
same,δ subunit mRNA in hippocampus,δ subunit mRNA,three-fold

# — US7816074B2, “α4 β2 δGABA-A receptors as a strategy for PMS and alcoholism” (priority 2003, dated 2010)
